Measured values taken from article doi:10.1101/2023.03.26.531482v1 (biorxiv, 2023).
Read-outs that look alike come from different tables or passages of the source.

Assays:
[1] = target: T1, MtDTBS (Mycobacterium tuberculosis dethiobiotin synthetase) (Mycobacterium tuberculosis, UniProt P9WPQ5); assay: biochemical
T1 sequence (P9WPQ5 1-226): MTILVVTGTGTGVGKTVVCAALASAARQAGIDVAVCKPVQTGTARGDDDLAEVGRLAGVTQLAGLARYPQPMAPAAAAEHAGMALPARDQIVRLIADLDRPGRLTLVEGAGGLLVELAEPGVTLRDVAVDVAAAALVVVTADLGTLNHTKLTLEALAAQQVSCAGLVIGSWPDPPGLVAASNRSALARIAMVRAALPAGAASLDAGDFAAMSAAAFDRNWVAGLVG

[2] = target: MtDTBS (Mycobacterium tuberculosis dethiobiotin synthetase) (Mycobacterium tuberculosis, UniProt P9WPQ5)

Row | SMILES | Kd [1] | Kd [2]
1 | O=C1Oc2ccccc2C2(O)C3CCCC3C12 (stereo not shown) [compound 1, 9b-hydroxy-6b,7,8,9,9a,9b-hexahydrocyclopenta[3,4]cyclobuta[1,2-c]chromen-6(6aH)-one] | 580 ± 40 µM | 
2 | O=C1CC[N+](=Cc2cccc(C(F)(F)F)c2)[N-]1 [B7] |  | 680 ± 30 µM
3 | c1ccc2c(c1)CCC1(C2)NCCc2[nH]cnc21 (stereo not shown) [B1] |  | 1240 ± 180 µM
4 | O=C1CC(c2ccc(F)cc2)Cc2[nH]ncc21 (stereo not shown) [B3] |  | 620 ± 140 µM
